Molecular target: T1, aldose reductase (Bos taurus, UniProt P16116)
T1 construct: isolated in known manner from bovine lenses; from tissue; host or cells: bovine lens
Experiment: in vitro inhibition of partially purified aldose reductase (reduction of glucose to sorbitol, spectrophotometric)
Type: biochemical
Details: partially purified enzyme from bovine lenses
Protocol: Thus, partially purified aldose reductase is isolated in known manner from bovine lenses. The percentage inhibition of this enzyme's ability in vitro to catalyse the reduction of aldoses to polyhydric alcohols, and particularly to reduce glucose to sorbitol, caused by a test compound is then determined using standard spectrophotometric methods.

Row | Compound | IC50
1 | O=[N+]([O-])CS(=O)(=O)N1CCOCC1 [N-(nitromethylsulphonyl)morpholine] | 880 nM
2 | O=[N+]([O-])CS(=O)(=O)N1CCCCC1 [Example 1, N-(nitromethylsulphonyl)piperidine] | 330 nM

Source: patent publication US5096918A, “Isoindoline nitromethane derivatives” (Imperial Chemical Industries PLC, priority 1989, dated 1992)
